Results on 20 compounds are retold here after US8399683B2 (TetraLogic Pharmaceuticals, priority 2008, dated 2013).

The structures appear in SMILES notation.

What is called Kd is the concentration at which binding is half-saturated. As usually defined, the CC50 is the concentration that lowers cell viability or growth by half. The low end stands for greater toxicity to the cells, the high end for lower toxicity to the cells.

The target of one assay is T1, XIAP BIR-3 (Homo sapiens, UniProt P98170).
T1 construct: 40 nM of the respective IAP BIR3
The assay can be described thus: Fluorescence polarization binding affinity to XIAP BIR-3 (competition with AbuRPF-K(5-Fam)-NH2). The note with it: 5 nM labeled peptide, 40 nM BIR3, 15 min at RT, pH 7.5; reported as ranges. The method, boiled down: (§1)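 Test peptides at varied concentrations competed with 5 nM fluorescent Smac-mimetic tracer for 40 nM BIR3 domain, 15 min at RT in 0.1M potassium phosphate pH 7.5 with […] bovine g-globulin. Polarization (mP) read at 485/520 nm; KD reported in bins (A=<0.1 μM, B=0.1–1 μM, C>1–10 μM, D=>10 μM).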
A general note: In fluorescence polarisation assays a small probe gives low polarisation when free and higher when bound to something large.

The target in the next assay is cIAP-1 BIR-3 (Homo sapiens, UniProt Q13490). The assay can be described thus: Fluorescence polarization binding affinity to cIAP-1 BIR-3 (competition with AbuRPF-K(5-Fam)-NH2). The note with it: 5 nM labeled peptide, 40 nM BIR3, 15 min at RT, pH 7.5; reported as ranges; read-out: KD (c-IAP-1 BIR3). An outline of the steps:
as §1

In another assay the test system is SK-OV-3 cells. The assay is described as follows: Growth inhibition of ovarian cancer cell line SK-OV-3 (MTT assay, cell survival). The class given is cell-based. The following applies: Homo sapiens, drug concentration that results in 50% cell survival, 72 hrs incubation, reported as ranges. An outline of the steps: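 After overnight seeding in McCoy's medium with 10% FBS, SK-OV-3 cells were exposed to compound at 0.003-10 μM for 72 hrs at 37° C. MTT was then added for 3 h, with DMSO solubilization and OD read at 535 nm. CC50 is the concentration giving 50% survival relative to untreated control, reported as ranges.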
(Tetrazolium dyes change colour on reduction, which living cells bring about.)

Sequence of cIAP-1 BIR-3 (Q13490 266-352 limits assumed): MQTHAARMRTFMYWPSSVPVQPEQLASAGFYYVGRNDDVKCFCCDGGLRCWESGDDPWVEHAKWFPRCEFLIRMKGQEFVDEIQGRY
T1 sequence (P98170 241-356 limits assumed): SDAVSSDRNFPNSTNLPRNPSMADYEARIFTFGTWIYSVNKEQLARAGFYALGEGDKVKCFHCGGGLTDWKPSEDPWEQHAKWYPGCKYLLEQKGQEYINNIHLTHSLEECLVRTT

For `CN[C@@H](C)C(=O)N[C@@H](CO)C(=O)N1CC[C@@H]2[C@H]1[C@H](c1c[nH]c3cc(F)ccc13)CN2S(C)(=O)=O` [Example 51, N-{2-[6-(6-Fluoro-1H-indol-3-yl)-4-methanesulfonyl-hexahydro-pyrrolo[3,2-b]pyrrol-1-yl]-1-hydroxymethyl-2-oxo-ethyl}-2-methylamino-propionamide], the Kd at XIAP BIR-3 is over 10000 nM; at cIAP-1 BIR-3 it was 1000 to 10000 nM. Further, the CC50 in the assay with SK-OV-3 cells was over 10000 nM.
On to `CN[C@@H](C)C(=O)N[C@@H](CO)C(=O)N1CC[C@@H]2[C@H]1[C@@H](c1c[nH]c3cc(F)ccc13)CN2S(C)(=O)=O` [Example 52, N-{2-[6-(6-Fluoro-1H-indol-3-yl)-4-methanesulfonyl-hexahydro-pyrrolo[3,2-b]pyrrol-1-yl]-1-hydroxymethyl-2-oxo-ethyl}-2-methylamino-propionamide], for which the Kd on XIAP BIR-3 and at cIAP-1 BIR-3 was under 100 nM throughout. In the assay on SK-OV-3 cells, the CC50 was 1000 to 10000 nM.
Turning to `CN[C@@H](C)C(=O)N[C@@H](COC)C(=O)N1CC[C@@H]2[C@H]1[C@H](c1c[nH]c3cc(F)ccc13)CN2S(C)(=O)=O` [Example 53, N-{2-[6-(6-Fluoro-1H-indol-3-yl)-4-methanesulfonyl-hexahydro-pyrrolo[3,2-b]pyrrol-1-yl]-1-methoxymethyl-2-oxo-ethyl}-2-methylamino-propionamide], the figures for the Kd at XIAP BIR-3 and on cIAP-1 BIR-3 were over 10000 nM and 1000 to 10000 nM, respectively. In the assay on SK-OV-3 cells, this compound came in with a CC50 of over 10000 nM.
With `CN[C@@H](C)C(=O)N[C@@H](COC)C(=O)N1CC[C@@H]2[C@H]1[C@@H](c1c[nH]c3cc(F)ccc13)CN2S(C)(=O)=O` [Example 54], the Kd at XIAP BIR-3 and on cIAP-1 BIR-3 was under 100 nM each time. Moreover, in the assay on SK-OV-3 cells, the CC50 was 100 to 1000 nM.
With `CN[C@@H](C)C(=O)N[C@H](C(=O)N1CC[C@@H]2[C@H]1[C@H](c1c[nH]c3cc(F)ccc13)CN2S(C)(=O)=O)[C@@H](C)O` [Example 55, N-{1-[6-(6-Fluoro-1H-indol-3-yl)-4-methanesulfonyl-hexahydro-pyrrolo[3,2-b]pyrrole-1-carbonyl]-2-hydroxy-propyl}-2-methylamino-propionamide], the Kd on XIAP BIR-3 was over 10000 nM; at cIAP-1 BIR-3, 1000 to 10000 nM. The compound further registered a CC50 in the assay with SK-OV-3 cells of over 10000 nM.
Consider `CN[C@@H](C)C(=O)N[C@H](C(=O)N1CC[C@@H]2[C@H]1[C@@H](c1c[nH]c3cc(F)ccc13)CN2S(C)(=O)=O)C(C)O` (stereo partly drawn) [Example 56], for which the Kd at XIAP BIR-3 and on cIAP-1 BIR-3 was under 100 nM throughout. In the assay on SK-OV-3 cells, the CC50 was under 100 nM.
Consider `CN[C@@H](C)C(=O)N[C@H](C(=O)N1CC[C@@H]2[C@H]1[C@H](c1c[nH]c3cc(F)ccc13)CN2S(C)(=O)=O)[C@@H](C)OC` [Example 57, N-{1-[6-(6-Fluoro-1H-indol-3-yl)-4-methanesulfonyl-hexahydro-pyrrolo[3,2-b]pyrrole-1-carbonyl]-2-methoxy-propyl}-2-methylamino-propionamide], for which the dissociation constant Kd is over 10000 nM at XIAP BIR-3 and 100 to 1000 nM on cIAP-1 BIR-3. The same compound showed a CC50 in the assay with SK-OV-3 cells of over 10000 nM.
As to `CN[C@@H](C)C(=O)N[C@H](C(=O)N1CC[C@@H]2[C@H]1[C@@H](c1c[nH]c3cc(F)ccc13)CN2S(C)(=O)=O)[C@@H](C)OC` [Example 58, N-{1-[6-(6-Fluoro-1H-indol-3-yl)-4-methanesulfonyl-hexahydro-pyrrolo[3,2-b]pyrrole-1-carbonyl]-2-methoxy-propyl}-2-methylamino-propionamide], the Kd on XIAP BIR-3 and on cIAP-1 BIR-3 was under 100 nM in each case. The compound also returned a CC50 in the assay with SK-OV-3 cells of under 100 nM.
Take `CN[C@@H](C)C(=O)N[C@H](C(=O)N1CC[C@@H]2[C@H]1[C@@H](c1c[nH]c3cc(F)ccc13)CN2C(C)=O)C1CCCCC1` [Example 59, N-{2-[4-Acetyl-6-(6-fluoro-1H-indol-3-yl)-hexahydro-pyrrolo[3,2-b]pyrrol-1-yl]-1-cyclohexyl-2-oxo-ethyl}-2-methylamino-propionamide]: the Kd at XIAP BIR-3 and at cIAP-1 BIR-3 was under 100 nM in each case. The same compound gave a CC50 in the assay on SK-OV-3 cells of under 100 nM.
As to `CC[C@H](NC(=O)[C@H](C)NC)C(=O)N1CC[C@@H]2[C@H]1[C@@H](c1c[nH]c3cc(F)ccc13)CN2C(C)=O` [Example 60, N-{1-[4-Acetyl-6-(6-fluoro-1H-indol-3-yl)-hexahydro-pyrrolo[3,2-b]pyrrole-1-carbonyl]-propyl}-2-methylamino-propionamide], the Kd at XIAP BIR-3 and on cIAP-1 BIR-3 was under 100 nM each time. The CC50 in the assay on SK-OV-3 cells is under 100 nM.
Take `CN[C@@H](C)C(=O)N[C@H](C(=O)N1CC[C@@H]2[C@H]1[C@@H](c1c[nH]c3cc(F)ccc13)CN2C(C)=O)C(C)C` [Example 61, N-{1-[4-Acetyl-6-(6-fluoro-1H-indol-3-yl)-hexahydro-pyrrolo[3,2-b]pyrrole-1-carbonyl]-2-methyl-propyl}-2-methylamino-propionamide]: the Kd at XIAP BIR-3 and on cIAP-1 BIR-3 was under 100 nM throughout. This compound came in with a cytotoxic concentration (CC50) with SK-OV-3 cells of under 100 nM.
Turning to `CN[C@@H](C)C(=O)N[C@H](C(=O)N1CC[C@@H]2[C@H]1[C@@H](c1c[nH]c3cc(F)ccc13)CN2C(C)=O)C(C)(C)C` [Example 62, N-{1-[4-Acetyl-6-(6-fluoro-1H-indol-3-yl)-hexahydro-pyrrolo[3,2-b]pyrrole-1-carbonyl]-2,2-dimethyl-propyl}-2-methylamino-propionamide], the Kd at XIAP BIR-3 and on cIAP-1 BIR-3 was under 100 nM in each case. This compound yielded a CC50 in the assay on SK-OV-3 cells of under 100 nM.
Regarding `CN[C@@H](C)C(=O)N[C@@H](CO)C(=O)N1CC[C@@H]2[C@H]1[C@@H](c1c[nH]c3cc(F)ccc13)CN2C(C)=O` [Example 63, N-{2-[4-Acetyl-6-(6-fluoro-1H-indol-3-yl)-hexahydro-pyrrolo[3,2-b]pyrrol-1-yl]-1-hydroxymethyl-2-oxo-ethyl}-2-methylamino-propionamide], the Kd at XIAP BIR-3 and on cIAP-1 BIR-3 was under 100 nM throughout. Further, in the assay with SK-OV-3 cells, the CC50 was 1000 to 10000 nM.
In the case of `CN[C@@H](C)C(=O)N[C@@H](COC)C(=O)N1CC[C@@H]2[C@H]1[C@@H](c1c[nH]c3cc(F)ccc13)CN2C(C)=O` [Example 64, N-{2-[4-Acetyl-6-(6-fluoro-1H-indol-3-yl)-hexahydro-pyrrolo[3,2-b]pyrrol-1-yl]-1-methoxymethyl-2-oxo-ethyl}-2-methylamino-propionamide], the Kd at XIAP BIR-3 was 100 to 1000 nM; on cIAP-1 BIR-3, under 100 nM. Moreover, the CC50 with SK-OV-3 cells fell in the range of 100 to 1000 nM.
Turning to `CN[C@@H](C)C(=O)N[C@H](C(=O)N1CC[C@@H]2[C@H]1[C@@H](c1c[nH]c3cc(F)ccc13)CN2C(C)=O)[C@@H](C)O` [Example 65, N-{1-[4-Acetyl-6-(6-fluoro-1H-indol-3-yl)-hexahydro-pyrrolo[3,2-b]pyrrole-1-carbonyl]-2-hydroxy-propyl}-2-methylamino-propionamide], the Kd at XIAP BIR-3 and at cIAP-1 BIR-3 was under 100 nM each time. The compound also gave a CC50 in the assay with SK-OV-3 cells of 100 to 1000 nM.
For the compound `CN[C@@H](C)C(=O)N[C@H](C(=O)N1CC[C@@H]2[C@H]1[C@@H](c1c[nH]c3cc(F)ccc13)CN2C(C)=O)[C@@H](C)OC` [Example 66, N-{1-[4-Acetyl-6-(6-fluoro-1H-indol-3-yl)-hexahydro-pyrrolo[3,2-b]pyrrole-1-carbonyl]-2-methoxy-propyl}-2-methylamino-propionamide], the Kd on XIAP BIR-3 and at cIAP-1 BIR-3 was under 100 nM throughout. Moreover, the CC50 in the assay on SK-OV-3 cells is under 100 nM.
Regarding `CC[C@H](NC(=O)[C@H](C)NC)C(=O)N1CC[C@@H]2[C@H]1[C@@H](c1c[nH]c3ccc(F)cc13)CN2C(C)=O` [Example 67, N-{1-[4-Acetyl-6-(5-fluoro-1H-indol-3-yl)-hexahydro-pyrrolo[3,2-b]pyrrole-1-carbonyl]-propyl}-2-methylamino-propionamide], the Kd at XIAP BIR-3 and at cIAP-1 BIR-3 was under 100 nM each time. In the assay on SK-OV-3 cells, this compound showed a CC50 of 100 to 1000 nM.
On to `CN[C@@H](C)C(=O)N[C@H](C(=O)N1CC[C@@H]2[C@H]1[C@@H](c1c[nH]c3ccc(F)cc13)CN2C(C)=O)C(C)C` [Example 68, N-{1-[4-Acetyl-6-(5-fluoro-1H-indol-3-yl)-hexahydro-pyrrolo[3,2-b]pyrrole-1-carbonyl]-2-methyl-propyl}-2-methylamino-propionamide], for which the Kd at XIAP BIR-3 and on cIAP-1 BIR-3 was under 100 nM each time. The CC50 in the assay with SK-OV-3 cells was under 100 nM.
Regarding `CN[C@@H](C)C(=O)N[C@H](C(=O)N1CC[C@@H]2[C@H]1[C@@H](c1c[nH]c3ccc(F)cc13)CN2C(C)=O)C(C)(C)C` [Example 69, N-{1-[4-Acetyl-6-(5-fluoro-1H-indol-3-yl)-hexahydro-pyrrolo[3,2-b]pyrrole-1-carbonyl]-2,2-dimethyl-propyl}-2-methylamino-propionamide], the Kd at XIAP BIR-3 and at cIAP-1 BIR-3 was under 100 nM each time. The compound also registered a CC50 in the assay on SK-OV-3 cells of under 100 nM.
On to `CN[C@@H](C)C(=O)N[C@H](C(=O)N1CC[C@@H]2[C@H]1[C@@H](c1c[nH]c3ccc(F)cc13)CN2C(C)=O)C1CCCCC1` [Example 70, N-{2-[4-Acetyl-6-(5-fluoro-1H-indol-3-yl)-hexahydro-pyrrolo[3,2-b]pyrrol-1-yl]-1-cyclohexyl-2-oxo-ethyl}-2-methylamino-propionamide], for which the Kd on XIAP BIR-3 and on cIAP-1 BIR-3 was under 100 nM each time. The compound further showed a CC50 in the assay with SK-OV-3 cells of under 100 nM.
